Assay results from ChEMBL document CHEMBL4028827, “Discovery of indazole aldosterone synthase (CYP11B2) inhibitors as potential treatments for hypertension” (Bioorg Med Chem Lett, 2017).

Columns and labels:
[1] = biological target: T1, Cytochrome P450 11B2, mitochondrial (Homo sapiens, UniProt P19099); test: Inhibition of human CYP11B2-CLE9 expressed in Chinese hamster V79 cells using 11-deoxycorticosterone as substrate preincubated for 1 hr followed by substrate addition measured for 3 hrs by HTRF assay; type: cell-based
T1 sequence (P19099 whole entry): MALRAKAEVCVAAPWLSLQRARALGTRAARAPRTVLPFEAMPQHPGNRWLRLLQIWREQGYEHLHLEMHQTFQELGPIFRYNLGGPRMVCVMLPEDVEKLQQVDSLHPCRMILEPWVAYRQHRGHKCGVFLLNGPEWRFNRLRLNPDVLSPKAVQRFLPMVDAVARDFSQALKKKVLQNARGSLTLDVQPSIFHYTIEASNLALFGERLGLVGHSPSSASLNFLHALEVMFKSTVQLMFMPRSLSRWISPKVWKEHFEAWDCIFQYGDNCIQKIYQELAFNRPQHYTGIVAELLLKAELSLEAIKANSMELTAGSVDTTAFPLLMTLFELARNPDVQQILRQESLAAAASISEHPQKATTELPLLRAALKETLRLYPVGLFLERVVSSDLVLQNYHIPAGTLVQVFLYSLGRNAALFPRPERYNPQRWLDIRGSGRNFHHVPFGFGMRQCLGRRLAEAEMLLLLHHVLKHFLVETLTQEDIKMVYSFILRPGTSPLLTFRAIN

[2] = biological target: T2, Cytochrome P450 11B1, mitochondrial (Homo sapiens, UniProt P15538); test: Inhibition of human CYP11B1-8C7 expressed in Chinese hamster V79 cells using 11-deoxycortisol as substrate preincubated for 1 hr followed by substrate addition measured for 3 hrs by HTRF assay; type: ADME, cell-based
T2 sequence (P15538 whole entry): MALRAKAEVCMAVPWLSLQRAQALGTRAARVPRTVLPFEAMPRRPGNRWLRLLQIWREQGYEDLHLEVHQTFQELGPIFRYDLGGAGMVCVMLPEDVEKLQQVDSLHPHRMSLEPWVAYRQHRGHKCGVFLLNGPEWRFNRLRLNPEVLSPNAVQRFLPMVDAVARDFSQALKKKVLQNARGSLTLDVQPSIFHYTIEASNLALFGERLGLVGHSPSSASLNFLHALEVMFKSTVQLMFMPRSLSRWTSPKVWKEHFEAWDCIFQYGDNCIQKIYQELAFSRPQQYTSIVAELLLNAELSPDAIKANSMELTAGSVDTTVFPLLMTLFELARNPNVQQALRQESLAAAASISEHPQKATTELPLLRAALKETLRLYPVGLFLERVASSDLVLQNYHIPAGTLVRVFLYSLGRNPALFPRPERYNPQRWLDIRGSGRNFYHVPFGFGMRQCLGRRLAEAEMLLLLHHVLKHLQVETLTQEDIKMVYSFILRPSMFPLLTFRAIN

[3] = Selectivity ratio of IC50 for human CYP11B1-8C7 expressed in Chinese hamster V79 cells to IC50 for human CYP11B2-CLE9 expressed in Chinese hamster V79 cells
[4] = Intrinsic clearance in rat liver microsomes at […] preincubated for 10 mins followed by NADPH addition measured after 45 mins by LC-MS analysis; type: ADME, microsome; details: read-out: CLH

IC50 [1] [µM]	IC50 [2] [µM]	CLint scaled [4] [L/h/kg]	Structure (SMILES)	Ratio IC50 [3]
1.16	8.3 to 8.33	–	CC(C)(O)c1cncc(-n2ncc3cc(C#N)ccc32)c1	>7
0.0003 to 0.0008	0.0018 to 0.0089	< 1.2	CC(C)(O)c1cncc(-n2ncc3c(F)ccc(F)c32)c1	6 - 11
0.528 to 0.53	8.3 to 8.33	–	CC(C)(O)c1cncc(-n2ncc3ccc(Cl)cc32)c1	>16
0.456 to 0.46	8.3 to 8.33	5.1	Fc1cncc(-n2ncc3cc(F)ccc32)c1	>18
0.0002 to 0.0004	0.0011 to 0.00772	–	CC(C)(O)c1cncc(-n2ncc3c(Cl)ccc(F)c32)c1	5 - 20
0.0785 to 0.079	1.99 to 2	4.98	CC(C)(O)c1cncc(-n2ncc3ccc(F)cc32)c1	25
0.015 to 0.0151	0.535 to 0.54	< 1.2	CC(C)(O)c1cncc(-n2ncc3ccccc32)c1	36
0.0109 to 0.013	0.197 to 0.21	1.8	CC(C)(O)c1cncc(-n2ncc3cc(F)ccc32)c1	15 - 19
0.044 to 0.0441	1.3	–	COc1cncc(-n2ncc3cc(F)ccc32)c1	30
0.0009	0.0107 to 0.011	< 1.2	CC(C)(O)c1cncc(-n2ncc3cccc(F)c32)c1	12
0.088 to 0.0883	1.69 to 1.7	18	Fc1ccc2c(cnn2-c2cncc(C(F)(F)F)c2)c1	19
0.00777 to 0.008	0.21	–	Cc1cccc2c1cnn2-c1cncc(C(C)(C)O)c1	27
0.002 to 0.00213	0.047 to 0.0474	13.8	CC(O)(c1cncc(-n2ncc3cc(F)ccc32)c1)C(F)(F)F (configuration not stated)	24
2.3	8.3 to 8.33	–	CC(C)(O)c1cncc(-n2ncc3ccc(C(F)(F)F)cc32)c1	>4
0.217 to 0.22	8.3 to 8.33	2.58	Fc1ccc2c(cnn2-c2cccnc2)c1	>38
0.3 to 0.304	8.3 to 8.33	–	CC(C)(O)c1cncc(-n2nc(C(F)(F)F)c3ccccc32)c1	>27
0.031	0.52	–	COC(=O)c1cncc(-n2ncc3cc(F)ccc32)c1	17
0.00758 to 0.008	0.149 to 0.15	3.84	CC(C)(O)c1cncc(-n2ncc3c(F)cccc32)c1	19
0.022 to 0.0221	–	–	COC(=O)c1cccc2c1cnn2-c1cncc(C(C)(C)O)c1	–
0.507 to 0.51	1.2 to 1.24	< 1.2	CC(C)(O)c1cncc(-n2ncc3cc(C(F)(F)F)ccc32)c1	2
0.76 to 0.763	8.3 to 8.33	–	CC(C)(O)c1cncc(-n2nc(C3CC3)c3ccccc32)c1	>11
0.025	1.4 to 1.41	–	COc1nn(-c2cncc(C(C)(C)O)c2)c2ccccc12	57
0.027 to 0.0273	0.47	–	CC(C)(O)c1cncc(-n2ncc3cc(Cl)ccc32)c1	17
0.0335 to 0.034	0.779 to 0.78	–	Cc1nn(-c2cncc(C(C)(C)O)c2)c2ccccc12	44
0.0979 to 0.098	0.916 to 0.92	–	Cc1ccc2c(cnn2-c2cncc(C(C)(C)O)c2)c1	9
0.0849 to 0.085	1	–	COc1ccc2c(cnn2-c2cncc(C(C)(C)O)c2)c1	12
